# Legend:
# [1] = test system: HuH7 cell; assay: LDH release from HuH7 cells; format: cell-based, human; settings: HuH7, 16 h exposure, data not shown
# [2] = test system: CD4+ Th17 cells; assay: Modulation of Th17 populations in human PBMCs (flow cytometry); format: cell-based; settings: 10 μM, 3 day assay
# Protocol: Human peripheral blood mononuclear cells (PBMCs) were isolated from four healthy donors. Four experiments were conducted and analyzed by flow cytometry over 3 day assay. The control group had no drug treatment, a second were treated with 10 μM Compound 1, a third group was stimulated with PHA/IL-2 without treatment, and the fourth group was stimulated with PHA/IL-2 and incubated with 10 μM Compound 1. […] Further, Compound 1 has no effect on Th17 populations in the absence of PHA/IL-2 stimulation.
# [3] = test system: C57BL/6 mice fed with atherogenic diet; assay: Atherogenic (fibrotic) diet mouse model: liver damage, inflammation, fibrosis; format: in vivo
# Protocol: Male C57BL/6J mice, 7 to 8 weeks old, were housed randomly in standard cages and were fed a HFD, or atherogenic diet (consisting 1% Chol and 0.5% cholic acid, see also Table 3). All mice had free access to water during the experimental period. During the feeding period body weight was monitored every 3 days. In the HFD experiment, after 4 or 6 weeks, the resultant obese mice were treated with antagomiR-122 ([…] once a week for 3 weeks), or i.p. injected with Compound 1 (RORα agonist, 7.5 mg/kg twice a week for 3 weeks; or 15 mg/kg 3 times a week for 3 weeks). The obese control (HFD) group was administered only saline with DMSO and antagomiR-control. After 3 weeks of treatment mice were sacrificed and livers were taken for RNA-seq analysis. Livers, white adipose, and skeletal muscle tissues were frozen in liquid nitrogen or in optimum cutting temperature embedded frozen blocks, for further RNA and histologic analysis. In the atherogenic diet experiment mice were treated with 15 mg/kg Compound 1 after 3 weeks with the diet. After 3.5 weeks of treatment, mice were sacrificed, and the livers were frozen in liquid nitrogen or in optimum cutting temperature embedded frozen blocks. Plasma was collected from atherogenic diet-fed mice and saved in −20° C. for ALT and AST analysis using the Reflotron® Analyzer and test-strips (Roche).
# Livers and adipose samples were placed in 4% buffered formaldehyde for 24 hours, followed by 80% ethanol and then embedded in paraffin blocks. Liver and adipose tissues were cut into […], deparaffinized with xylene and hydrated through graded ethanol. For the H&E staining, tissue sections were stained with hematoxylin (Emmonya Biotech Ltd.) and eosin (Leica, Surgipath). Liver macrophages were stained using rat anti-mouse F4/80 antigen (Serotec), followed by anti-Rat HRP (Histofine) and developed with a DAB kit (Zymed). Liver sections were stained for Masson Trichrome (Sigma). Liver CD3+ T cells were stained using Rat anti human-CD3-antibody (Bio-Rad), followed by anti-Rat HRP (Histofine) and developed with AEC (Invitrogen). α-SMA positive cells were stained using mouse anti-Human smooth Muscle Actin antibody (Dako), followed by anti-mouse HRP (Dako) and developed with DAB. The percentage area stained positively per high power field was calculated by ImageJ Software in 5-10 random fields.
# Experimental design: C57BL/6 mice fed for 3 weeks with atherogenic diet (to induce fibrosis) and injected with 15 mg/kg Compound 1 (or saline+DMSO) 3 times a week for 3.5 week (n=8).
# Experimental design: C57BL/6 mice fed for 3 weeks with atherogenic diet (to induce fibrosis) and injected with 15 mg/kg Compound 1 (or saline+DMSO) 3 times a week for 3.5 week (n=8). Representative microphotographs of H&E, CD3, and F4/80-stained livers taken from saline or Compound 1-treated mice are shown in FIG. 12A, where scale bars represent 10 μm. The graphs shown in FIG. 12B show quantification of positively-stained F4/80 areas using ImageJ.
# [4] = test system: miR-122 and Gpase6; assay: Modulation of RORα-regulated genes in healthy C57BL/6 mice; format: in vivo; settings: 7.5 mg/kg i.p. once
# Protocol: Healthy C57BL/6 mice were injected i.p. once with 7.5 mg/kg Compound 1 or saline control. Mice were sacrificed at 1, 2, and 7 day time points post-injection. miR-122 and Gpase 6 mRNA levels were determined by qRT-PCR for each time point. MicroRNA levels were normalized to RNU6; plasma miR-122 was normalized to spiked in C. elegans miR-39; and mRNA levels were normalized to HPRT.
# RNA extraction and quantitative Real-Time PCR analysis. Total RNA, including small RNAs, were isolated from 200 μL of plasma or culture media samples using the miRNeasy Mini kit (Qiagen, Valencia, CA, USA) with 2 minor modifications. First, 200 μl of plasma or culture media were lysed with 1 ml of Qiazol solution. Second, a 50 pmol/l of synthesized single strand Caenorhabditis elegans miRNA (cel-miR-39) was added as the spike-in control to monitor extraction efficiency. The remainder of the RNA extraction was performed according to the manufacturer's instructions. miRNAs were eluted with 30 μl of RNase-free water. Total RNA, including miRNAs, from cells or tissues were isolated using TRIzol reagent (Invitrogen, Carlsbad, CA, USA). cDNA was synthesized using the Quanta Biosciences qScript™ cDNA Synthesis Kit (95047-100) for mRNA analysis, and using the qScript™ microRNA cDNA Synthesis Kit (95107-100) for miRNAs analysis. qRT-PCR of miRNAs and mRNA was performed using the ABI 7900 HT Real-Time PCR System and a SYBR Green PCR Kit: Quanta Cat. #84018 and #84071 respectively. The fold expression and statistical significance were calculated using the 2-ΔΔ Ct method. All experiments were performed in triplicates.
# [5] = Cellular toxicity assay in CEM cells; format: cell-based; settings: human, CEM (human lymphoblastoid) cells, read-out: Cytotoxicity (IC50, μM) CEM
# Protocol: The toxicity of the compounds was assessed in human PBM, CEM (human lymphoblastoid), and Huh-7 cells, as described previously (see Schinazi R. F., Sommadossi J.-P., Saalmann V., Cannon D. L., Xie M.-Y., Hart G. C., Smith G. A. & Hahn E. F. Antimicrob. Agents Chemother. 1990, 34, 1061-67). Cycloheximide was included as positive cytotoxic control, and untreated cells exposed to solvent were included as negative controls. The cytotoxicity IC50 was obtained from the concentration-response curve using the median effective method described previously (see Chou T.-C. & Talalay P. Adv. Enzyme Regul. 1984, 22, 27-55; Belen'kii M. S. & Schinazi R. F. Antiviral Res. 1994, 25, 1-11).
# [6] = 15 mg/kg 3 times a week for 3.5 weeks
# [7] = liver, 15 mg/kg 3 times a week for 3.5 weeks
# [8] = liver, 15 mg/kg 3 times a week for 3.5 weeks, vs untreated
compound,measurement,setting,value
O=C1Nc2cc(C(=O)N3CCC(Cc4ccccc4)CC3)ccc2Nc2ccccc21 [Compound 1],toxicity to the cells as measured by LDH release,[1],no apparent toxicity
same,total viability of CD4+ T cells,[2]; even under PHA/IL-2 stimulation,no effect
same,"Th17 total population, presence of PHA/IL-2 stimulation",[2]; relative to vehicle-control,decreases
same,"Th17 populations, absence of PHA/IL-2 stimulation",[2]; unstimulated,no effect
same,"biomarkers of inflammation (Tgfb2 and TgfbR2) and fibrosis (Acta1, Col1A1 and Col3A1), liver mRNA",[3]; [6],reducing
same,"biomarkers of liver injury, AST and ALT (plasma)",[3]; [6],significantly improved
same,mature miR-122 in tissue and in plasma,[3]; [6],increased
same,liver vasculature (CD34 staining),[3]; data not shown,no effect
same,T-cell density by CD3 staining,[3]; [7],decreased
same,immune infiltrate by H&E staining,[3]; [7],decreased
same,levels of myeloid infiltrate by F4/80 staining,[3]; [7],decreased
same,"reduction of fibrotic areas, Masson Trichrome (M.T)",[3]; [8],5 fold
same,"reduction of fibrotic areas, α-SMA",[3]; [8],7 fold
same,miR-18 and miR-126 levels (controls),[4]; over 7 days,not affected
same,Gpase6 mRNA (RORα-regulated gene),[4]; up to 7 days post-injection,significantly up-regulated
same,miR-122 levels in plasma and liver,[4]; up to 7 days post-injection,increased
same,IC50,[5],11 µM
